From EPA's ToxValDB 9.5 (doi:10.2903/j.efsa.2008.175r)
Values after ≈ are worked out from the molar mass of the structure shown.

Legend:
Colinus virginianus = details: acute; oral; mortality
Rattus norvegicus = details: for NOAEL: reproduction developmental, reproduction
Coturnix coturnix = details: reproduction developmental
Typhlodromus pyri = assay: LR50; higher = less toxic; details: not reported; mortality
Bibionidae = details: chronic/long-term
Plant = details: not reported; seedling emergence
Anas platyrhynchos = details: for LD50: oral, mortality
Oncorhynchus mykiss = details: acute; duration: 96 hours; mortality
Daphnia magna = details: chronic/long-term; duration: 21 days; reproduction
Canidae = details: oral, Dog Other, organ weight
Pimephales promelas = details: chronic/long-term; duration: 30 days
Folsomia candida = details: chronic/long-term; duration: 4 weeks

## NC(Cc1ncn[nH]1)C(=O)O (configuration not stated) [1,2,4-Triazole-3-alanine]
Colinus virginianus
  LD50: > 1340 mg/kg-day
Rattus norvegicus; acute, oral, mortality
  LD50: > 5000 mg/kg-day
Rattus norvegicus
  NOAEL: 100 mg/kg-day

## c1nc[nH]n1 [1H-1,2,4-Triazole]
Coturnix coturnix
  NOEL: > 316 mg/kg-day

## CCCC(Cn1cncn1)c1ccc(Cl)cc1Cl (configuration not stated) [Penconazole]
Typhlodromus pyri
  LR50: 100 g/ha
Tagia sp.; acute, duration: 14 days, mortality
  LC50: > 663 mg/kg
Tagia sp.; chronic/long-term, duration: 56 days
  NOEC: > 0.34 mg/kg
Oryctolagus sp.; acute, oral, mortality
  LD50: 971 mg/kg-day
Oryctolagus sp.; developmental, development
  NOAEL: 50 mg/kg-day
Bibionidae
  NOEC: 25.2 mg/kg
Bibionidae; duration: 28 days
  NOEC: 0.8 mg/L
Plant
  LEL: 30 g/ha
Anas platyrhynchos; acute, unspecified
  LD50: > 1590 mg/kg-day
Anas platyrhynchos; reproductive
  NOEL: 28.6 mg/kg-day
Anas platyrhynchos; short-term, feed
  LD50: > 1840 mg/kg-day
Oncorhynchus mykiss
  LC50: 1.13 µg/mL (≈ 3.98 µM)
Daphnia magna
  NOEC: 0.06 mg/L
Canidae; chronic, duration: 1 years
  NOAEL: 3 mg/kg-day
Canidae; subchronic, duration: 90 days
  NOAEL: 3 mg/kg-day
Pimephales promelas
  NOEC: 0.32 mg/L
Rattus norvegicus
  NOAEL: 20 mg/kg-day
Folsomia candida
  NOEC: 98.8 mg/kg
